According to US12071488B2, “Method of sensitizing cancer cells to anti-cancer treatment” (TWO TO BIOTECH LTD., priority 2017, dated 2024):

Columns and labels:
[1] = test system: pancreatic cancer cells BxPC3; experiment: Glutathione level in pancreatic cancer cells treated with APC1; assay type: cell-based, human; settings: pancreatic cancer cells (FIG. 18B)
Procedure: Gluthatione Assay Kit (Sigma CS0260);
Cell lines (MDA-MB-231, MDA-MB-468) were grown in 75 cm^2 cell culture flask, reached 80-90% confluence. The cells were treated with APC1 (250 μg/ml, 2 times per week for 1 week).
Cells were washed twice with 10 ml PBS, PBS (5 ml) was added and the cells were collected by scrapping, centrifuged at 300G, 4° C. for 5 minutes, the supernatant was then discarded and the cells were treated with APC1 as indicated above. The values of the Glutathione Standard Solutions were used to determine the standard curve and the delta A412/min equivalent to 1 nmole of reduced glutathione per well was calculated according to manufacturer's instructions.
As detailed above, the ovarian cancer cells OV90 and OV3, the pancreatic cancer cells BxPC3 and Panel and the TNBC cancer cells MDA-MB-231 and MDA-MB-468 were treated with APC1 and then the relative glutathione levels in these cells was measured as detailed above.

MDA-MB-468 cells = experiment: Analysis of apoptosis in MDA-MB-468 cells with APC1 and Herceptin; assay type: cell-based, human; settings: Herceptin 12 μg/ml, APC1 250 μg/ml (FIG. 9)
Text: (§1) Cells were examined for apoptosis or HER2 expression using FACS analysis. The HER2 antibody used was abcam ab16901. The marker Annexin (Enco) was used for assessment of apoptosis.

MDA-MB-231 cells = experiment: FACS analysis of apoptosis (Annexin) in MDA-MB-231 cells; assay type: cell-based, human
Text: as §1

[2] = test system: human ovarian cancer cells (OV90); experiment: Relative tumor volume in nude mice inoculated with human ovarian cancer cells; assay type: in vivo; settings: OV90 tumors
Procedure: During the treatment period, each mouse was weighted, and the tumor size was measured by Digital caliper.
When the tumors exceeded a volume of 40 mm^3 or 50 mm^3 (for OV90 and Panc1, respectively), the mice were randomly divided into four groups of 8 mice each, as follows. A control group was treated with saline only, the APC1-treated group was treated three times a week with doses of APC1 at 15 mg/kg each, the doxorubicin and APC treated group was treated twice a week with doses of APC1 (at 15 mg/kg each) and once a week with doxorubicin (at 3 mg/kg) and the doxorubicin-treated group was treated with doxorubicin only, once a week at a dose of 3 mg/kg. These dosing protocols were repeated throughout the experiment, namely for 5 weeks.

For “EKGAAFSPIYPRRK (C terminal peptide of KTPAF50) [APC1, polypeptide consisting of the 14 C-terminal amino acid residues of the peptide KTPAF50]”, the level of glutathione [1] was “decreased”, the level of apoptosis (MDA-MB-468 cells) was 15% and the “apoptosis with APC1 per se” value (MDA-MB-231 cells; APC1 alone (FIG. 5A and FIG. 5B)) was “insignificant (if any)”. The “level of cellular apoptosis” value (MDA-MB-231 cells; MDA-MB-231, prolonged incubation, Kadcyla 96 hours (FIG. 6)) was “low level of apoptosis”, the “effect on tumor volume compared with doxorubicin-treated group” value ([2]; APC1 15 mg/kg three times a week) was “more pronounced” and the relative tumor volume ([2]; APC1 15 mg/kg, doxorubicin 3 mg/kg once a week, 5 weeks, control increased linearly) was “modest increases”.
